From patent US8697714B2, “Quinazolinone based fluorogenic probes” (Nanyang Technological University, priority 2010, dated 2014)

Experiments:
monoamine oxidase A = biological target: T1, monoamine oxidase A (Homo sapiens, UniProt P21397); assay: Fluorescent enhancement of MAO substrates after incubation with MAO A; format: biochemical; conditions: MAO A 10 μg/ml, substrate 200 μM, 37° C., 2 hours, emission 530 nm
T1 construct: purchased Sigma Aldrich
T1 sequence (P21397 1-527): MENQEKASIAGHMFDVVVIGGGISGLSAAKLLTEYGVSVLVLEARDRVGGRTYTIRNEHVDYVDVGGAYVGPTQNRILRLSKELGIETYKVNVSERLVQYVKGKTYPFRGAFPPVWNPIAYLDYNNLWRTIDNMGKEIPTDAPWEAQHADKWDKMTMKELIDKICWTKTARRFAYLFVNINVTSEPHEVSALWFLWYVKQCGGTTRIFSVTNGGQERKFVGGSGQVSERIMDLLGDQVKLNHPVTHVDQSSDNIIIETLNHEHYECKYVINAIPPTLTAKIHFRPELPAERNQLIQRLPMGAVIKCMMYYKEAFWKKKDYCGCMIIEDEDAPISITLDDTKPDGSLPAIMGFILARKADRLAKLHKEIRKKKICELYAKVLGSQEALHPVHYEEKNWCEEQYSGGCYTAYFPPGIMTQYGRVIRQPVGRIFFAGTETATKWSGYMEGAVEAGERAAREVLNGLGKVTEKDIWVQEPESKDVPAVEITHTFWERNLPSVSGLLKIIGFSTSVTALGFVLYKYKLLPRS
Procedure: (§1) Activity of fluorogenic MAO-HPQ 1, 2 and 3 were determined by the fluorescence intensity after incubations separately with monoamine oxidase A or B at 37° C. for 2 hours. Typically, 5 μl of MAO A and B enzyme solution (final concentration of 10 μg/ml) was incubated with MAO substrates 1, 2 and 3 (final concentration of 200 μM) in a 100 mM Tris-HCl buffer, pH 7.90, 5% glycerol and 5% DMSO. After 2 hours of incubation, the fluorescent enhancement was monitored by Fluorescence spectrophotometer with excitation wavelength at 360 nm.
(§2) The activity of these three probes (MAO-HPQ 1˜3) towards both MAO isozymes were investigated by in vitro fluorescent measurements. All the MAO substrates 1, 2, and 3 were very stable in aqueous solutions and were almost non-fluorescent before MAO enzymatic oxidation due to the alkylation of the 2′-hydroxyl group in the 2-(2′-hydroxy-5′-chlorophenyl)-6-chloro-4(3H)-quinazolinone fluorophore.
(§3) The ratio of fluorescent intensity in the presence and absence of MAO enzymes were used to estimate MAO activities.

monoamine oxidase B = biological target: T2, monoamine oxidase B (Homo sapiens, UniProt P27338); assay: Fluorescent enhancement of MAO substrates after incubation with MAO B; format: biochemical; conditions: MAO B 10 μg/ml, substrate 200 μM, 37° C., 2 hours, emission 530 nm
T2 construct: purchased Sigma Aldrich
T2 sequence (P27338 1-520): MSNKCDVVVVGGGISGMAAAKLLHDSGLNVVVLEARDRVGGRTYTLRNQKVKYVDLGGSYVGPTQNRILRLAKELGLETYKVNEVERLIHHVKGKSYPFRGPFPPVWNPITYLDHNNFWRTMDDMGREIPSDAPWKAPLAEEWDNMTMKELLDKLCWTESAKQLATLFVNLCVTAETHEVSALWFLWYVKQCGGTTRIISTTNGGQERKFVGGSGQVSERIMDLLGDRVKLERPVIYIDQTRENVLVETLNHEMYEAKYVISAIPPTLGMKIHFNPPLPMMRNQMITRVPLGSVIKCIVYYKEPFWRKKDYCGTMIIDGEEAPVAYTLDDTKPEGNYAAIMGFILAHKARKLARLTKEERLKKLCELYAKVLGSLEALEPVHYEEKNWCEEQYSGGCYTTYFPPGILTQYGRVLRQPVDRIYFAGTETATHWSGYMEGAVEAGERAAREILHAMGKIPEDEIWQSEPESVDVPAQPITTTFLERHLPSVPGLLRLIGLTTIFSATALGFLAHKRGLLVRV
Procedure: as §1, §2, §3

PC12 cell line = assay: Cell viability, standard MTT assay; format: cell-based, Rattus norvegicus; conditions: FIG. 6
Procedure: FIG. 6 illustrates the cell viability of substrate MAO-HPQ 1 (2-(5′-chloro-2′-(3-aminopropoxy)phenyl)-6-chloro-4(3H)-quinazolinone) and 2-(2′-hydroxy-5′-chlorophenyl)-6-chloro-4(3H)-quinazolinone (indicated as HPQ″) in PC12 cell line. As a Control, cells were treated with 5% of DMSO only.
the cytotoxicity activity of MAO-HPQ 1 was evaluated by the standard MTT assay as previously described in Y. H. Choi et al, J. Control. Rel., 1998, 54, 39-48. MAO-HPQ 1 indicates less toxicity and thereby can be used as a probe for real-time imaging of MAO activity in living cells (FIG. 6).

[1] = tested on: MAO activity in PC12 cells; assay: Imaging of MAO activity in living PC12 cells; format: cell-based, Rattus norvegicus; conditions: 100 μM, 37° C., 1 h
Procedure: (§4) PC12 cell (Rattus norvegicus, adrenal gland) was bought from American Type Culture Collection (ATCC Cat No: CR-1721) and maintained in F-12K medium (ATCC, Manassas Va.) containing 10% FBS (Invitrogen, Burlington, Canada). PC12 cell line were seeded at a density of 2×10^5 in a 35 mm diameter μ-dish plastic bottom (ibidi GmbH, Germany) and cultured for 2 days with Nerve Growth Factor (2.5S, 30 ng/mL, Invitrogen, Carlsbad, Calif.)^[2] in Dulbecco's Modified Eagle Medium (DMEM 1×, without phenol red, Gibco/Invitrogen, Carlsbad, Calif.) containing 4.5 g/L D-glucose, 2 mM GlutaMax-1 (Invitrogen). Control C6 glioma cell line was bought from American Type Culture Collection (ATCC Cat No.: CCL-107) and cultured with the same protocol as PC12 cell lines). After 2 days of culture, the live PC12 and C6 glioma cell lines were washed twice with DMEM. The live cells were then treated separately with 100 μM of MAO-HPQ 1 in DMEM (containing 0.5% of DMSO) and incubated for 1 hour in an incubator at 37° C. The cells were washed twice with Hank's Balanced Salt solution (Sigma). The fluorescence imaging was acquired with a Confocal fluorescence microscope (Nikon, Eclipse TE2000-E) using a super high pressure mercury lamp (Nikon, TE2-PS100W) with excitation filter: 360/40 nm; emission filter: 535/40 nm.
(§5) PC12 cell line was chosen owing to its high expression of MAO. […]

C6 glioma cells = assay: Imaging in living C6 glioma cells (negative control, no MAO expression); format: cell-based; conditions: 100 μM, 37° C., 1 h
Procedure: as §4, §5

[2] = Stability of substrates in aqueous solutions; format: physicochemical; conditions: before MAO enzymatic oxidation
From the text: as §2

[3] = tested on: MAO activity in PC12 cells; assay: Inhibition imaging: PC12 cells pre-treated with inhibitor, then MAO-HPQ 1; format: cell-based, Rattus norvegicus; conditions: 100 μM inhibitor pre-treatment, then 100 μM MAO-HPQ 1, 37° C., 1 h
Procedure: In the inhibition investigation, the live PC12 cell lines were washed twice with DMEM and pre-treated separately with 100 μM Clorgyline and Pargyline in DMEM for 1 hour in an incubator at 37° C. MAO-HPQ 1 was then added to the μ-dish with the final concentration of 100 μM and incubated for another 1 hour at 37° C. The cells were then washed twice with Hank's Balanced Salt solution. The fluorescence imaging was acquired with the Confocal fluorescence microscope.
Further imaging investigations were conducted by utilizing two commonly used inhibitors: Clorgyline for MAO A and Pargyline for MAO B. The PC12 cells were pre-treated separately with 100 μM of MAO A inhibitor clorgyline and MAO B inhibitor pargyline, and then incubated with 100 μM of MAO-HPQ probe 1 at 37° C. for 1 h. […] This is in accordance with the in vitro enzyme inhibition tests (FIG. 5). MAO-HPQ 1 indicates less toxicity (FIG. 6) and thereby can be used as a new probe for real-time imaging of MAO activity in living cells.

maximum fluorescent enhancement (ratio of fluorescent intensity in the presence and absence of MAO enzyme) (monoamine oxidase A) [fold] | maximum fluorescent enhancement (ratio of fluorescent intensity in the presence and absence of MAO enzyme) (monoamine oxidase B) [fold] | stability in aqueous solutions [2] | Structure (SMILES) | cytotoxicity activity (MTT) (PC12 cell line) | fluorescence in live cell imaging [1] | fluorescence in live cell imaging (C6 glioma cells) | fluorescence of PC12 cells pre-treated with inhibitor (MAO inhibition in living cells) [3]
307 | 300 | very stable | NCCCOc1ccc(Cl)cc1-c1nc2ccc(Cl)cc2c(=O)[nH]1 [MAO-HPQ 1, 2-(5′-chloro-2′-(3-aminopropoxy)phenyl)-6-chloro-4(3H)-quinazolinone] | less toxicity | bright fluorescence signals | little | –
5 | 7 | very stable | CN(C)CCCOc1ccc(Cl)cc1-c1nc2ccc(Cl)cc2c(=O)[nH]1 [MAO-HPQ 3, 2-(5′-chloro-2′-(3-(N,N′-dimethylamino)propoxy)phenyl)-6-chloro-4(3H)-quinazolinone] | – | – | – | –
15 | 20 | very stable | CNCCCOc1ccc(Cl)cc1-c1nc2ccc(Cl)cc2c(=O)[nH]1 [MAO-HPQ 2, 2-(5′-chloro-2′-(3-(N-methylamino)propoxy)phenyl)-6-chloro-4(3H)-quinazolinone] | – | – | – | –
– | – | – | C#CCN(C)CCCOc1ccc(Cl)cc1Cl [clorgyline, Clorgyline] | – | – | – | no obvious fluorescence
– | – | – | C#CCN(C)Cc1ccccc1 [pargyline, Pargyline] | – | – | – | strong fluorescence similar to the imaging result without inhibitor treatment
